Assay results taken from patent US10030020B2, “Spirocycle compounds and methods of making and using same” (Abide Therapeutics, Inc., priority 2016, dated 2018).

Experiments:
ABHD6 [1] = molecular target: T1, ABHD6 (Mus musculus (Mouse), UniProt Q8R2Y0); assay: In vitro competitive activity-based protein profiling (mouse brain membrane fraction or cell lysates), ABHD6 band; assay type: biochemical; settings: mouse proteome; for inhibition at 1 µM: read-out: ABHD6 % Inh 1 μM (mouse); for IC50: competitive ABPP
Summary of the method: (§1)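 Residual hydrolase activity was measured as gel band fluorescence after FP-Rh labelling (30 min, 37° C) of proteomes pretreated 30 min at 37° C with inhibitor.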

FAAH [2] = molecular target: T2, FAAH (Mus musculus (Mouse), UniProt O08914); assay: Mouse brain proteomes from inhibitor treated mice (oral gavage, sacrificed 4 h after administration, ABPP analysis), FAAH; assay type: in vivo, mouse (C57Bl/6J); settings: 5 mg/kg oral gavage
Summary of the method: (§2)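 Wild-type C57Bl/6J mice; p.o. gavage, vehicle e.g. PEG400/EtOH/PBS 7/2/1; 5 mg/kg. Brain harvested 4 h post-dose, proteome profiled by ABPP. Read-out: % inhibition.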

MAGL [3] = molecular target: MAGL (Homo sapiens (Human), UniProt Q99685); assay: In vitro competitive activity-based protein profiling (human prefrontal cortex or cell membrane fractions; hMAGL expressed in HEK293T cells); assay type: biochemical; settings: human proteome, competitive ABPP
Description: In Vitro Competitive Activity-Based Protein Profiling (Human).
Proteomes (human prefrontal cortex or cell membrane fractions) (50 μL, 1.0-2.0 mg/mL total protein concentration) were preincubated with varying concentrations of inhibitors at 37° C. After 30 min, FP—Rh or JW912 (1.0 μL, 50 μM in DMSO) was added and the mixture was incubated for another 30 min at room temperature. Reactions were quenched with SDS loading buffer (15 μL-4×) and run on SDS-PAGE.
Recombinant Expression of Human MAGL in HEK293T Cells.
Cell lysates were diluted with mock proteomes for use in competitive ABPP experiments.

ABHD6 [4] = molecular target: T1, ABHD6; assay: Mouse brain proteomes from inhibitor treated mice (oral gavage, sacrificed 4 h after administration, ABPP analysis), ABHD6; assay type: in vivo, mouse (C57Bl/6J); settings: 5 mg/kg oral gavage
Summary of the method: as §2

MAGL [5] = molecular target: T3, MAGL (Mus musculus (Mouse), UniProt O35678); assay: In vitro competitive activity-based protein profiling (mouse brain membrane fraction or cell lysates), MAGL band; assay type: biochemical; settings: mouse proteome; for inhibition at 1 µM: read-out: MAGL % Inh 1 μM (mouse); for IC50: competitive ABPP
Description: In Vitro Competitive Activity-Based Protein Profiling.
Proteomes (mouse brain membrane fraction or cell lysates) (50 μL, 1.0 mg/mL total protein concentration) were preincubated with varying concentrations of inhibitors at 37° C. After 30 min, FP—Rh (1.0 μL, 50 μM in DMSO) was added and the mixture was incubated for another 30 min at 37° C. Reactions were quenched with SDS loading buffer (50 μL-4×) and run on SDS-PAGE.

FAAH [6] = molecular target: T2, FAAH; assay: In vitro competitive activity-based protein profiling (mouse brain membrane fraction or cell lysates), FAAH band; assay type: biochemical; settings: mouse proteome; for inhibition at 1 µM: read-out: FAAH % Inh 1 μM (mouse); for IC50: competitive ABPP
Summary of the method: as §1

MAGL [7] = molecular target: T3, MAGL; assay: Mouse brain proteomes from inhibitor treated mice (oral gavage, sacrificed 4 h after administration, ABPP analysis); assay type: in vivo, mouse (C57Bl/6J); settings: 5 mg/kg oral gavage
Summary of the method: as §2

Sequence of MAGL (Homo sapiens (Human), UniProt Q99685) (Q99685 whole entry): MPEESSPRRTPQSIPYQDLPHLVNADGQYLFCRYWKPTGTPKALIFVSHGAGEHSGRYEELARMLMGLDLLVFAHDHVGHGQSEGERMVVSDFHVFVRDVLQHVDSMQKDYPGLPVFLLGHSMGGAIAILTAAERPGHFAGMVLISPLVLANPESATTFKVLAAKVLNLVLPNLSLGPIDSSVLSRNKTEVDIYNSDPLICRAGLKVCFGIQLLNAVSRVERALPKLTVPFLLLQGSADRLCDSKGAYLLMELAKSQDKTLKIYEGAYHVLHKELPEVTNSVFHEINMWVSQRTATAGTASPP
T3 sequence (O35678 whole entry): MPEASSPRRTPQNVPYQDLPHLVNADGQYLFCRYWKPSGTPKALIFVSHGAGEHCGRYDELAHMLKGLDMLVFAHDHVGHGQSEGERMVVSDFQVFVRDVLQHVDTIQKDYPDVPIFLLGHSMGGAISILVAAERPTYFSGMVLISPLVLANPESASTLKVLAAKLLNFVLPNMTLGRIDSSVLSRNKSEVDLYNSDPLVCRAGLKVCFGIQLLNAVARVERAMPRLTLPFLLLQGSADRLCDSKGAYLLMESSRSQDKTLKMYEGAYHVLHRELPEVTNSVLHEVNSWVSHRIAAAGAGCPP
T1 sequence (Q8R2Y0 whole entry): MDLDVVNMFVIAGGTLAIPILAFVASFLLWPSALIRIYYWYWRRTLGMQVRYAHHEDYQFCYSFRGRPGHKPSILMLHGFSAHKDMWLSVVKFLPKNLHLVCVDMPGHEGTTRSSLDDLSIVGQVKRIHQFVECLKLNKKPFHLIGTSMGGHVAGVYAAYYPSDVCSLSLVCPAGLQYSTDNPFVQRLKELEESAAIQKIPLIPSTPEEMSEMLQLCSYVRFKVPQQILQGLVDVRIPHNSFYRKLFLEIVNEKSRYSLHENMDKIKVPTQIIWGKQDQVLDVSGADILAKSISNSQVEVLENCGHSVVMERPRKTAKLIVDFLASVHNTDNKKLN
T2 sequence (O08914 whole entry): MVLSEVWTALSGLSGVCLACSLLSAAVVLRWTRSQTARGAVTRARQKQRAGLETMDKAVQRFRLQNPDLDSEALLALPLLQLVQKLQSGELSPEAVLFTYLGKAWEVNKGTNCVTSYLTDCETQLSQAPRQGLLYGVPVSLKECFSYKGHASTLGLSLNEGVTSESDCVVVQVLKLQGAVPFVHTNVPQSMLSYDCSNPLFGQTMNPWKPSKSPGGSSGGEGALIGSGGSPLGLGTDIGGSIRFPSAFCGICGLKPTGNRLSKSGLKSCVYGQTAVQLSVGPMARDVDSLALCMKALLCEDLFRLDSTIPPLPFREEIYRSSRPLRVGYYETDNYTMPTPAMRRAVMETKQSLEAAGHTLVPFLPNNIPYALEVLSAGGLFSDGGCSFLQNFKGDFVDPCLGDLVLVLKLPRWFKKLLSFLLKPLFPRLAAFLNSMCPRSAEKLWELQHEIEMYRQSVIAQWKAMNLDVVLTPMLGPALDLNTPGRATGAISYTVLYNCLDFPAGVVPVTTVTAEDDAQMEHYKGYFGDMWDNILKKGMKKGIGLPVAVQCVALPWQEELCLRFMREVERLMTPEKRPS

Row | SMILES | inhibition at 1 µM (ABHD6 [1]) [%] | IC50 (ABHD6 [1]) [nM] | FAAH % Inh 5 mg/kg (mouse) (FAAH [2]) | IC50 (MAGL [3]) [nM] | ABHD6 % Inh 5 mg/kg (mouse) (ABHD6 [4]) | inhibition at 1 µM (MAGL [5]) [%] | IC50 (MAGL [5]) [nM] | inhibition at 1 µM (FAAH [6]) [%] | IC50 (FAAH [6]) [nM] | MAGL % Inh 5 mg/kg (mouse) (MAGL [7])
1 | O=C(O)C1CCN(c2cc(C(F)(F)F)ccc2CN2CCC3(CCN(C(=O)OC(C(F)(F)F)C(F)(F)F)CC3)C2)CC1 [Example 119, 1-(2-((8-(((1,1,1,3,3,3-Hexafluoropropan-2-yl)oxy)carbonyl)-2,8-diazaspiro[4.5]decan-2-yl)methyl)-5-(trifluoromethyl)phenyl)piperidine-4-carboxylic acid] | ≥ 75 | 100 to 1000 | # (# is <25%) | < 100 | ### (### is ≥75%) | > 75 | < 100 | < 25 | > 1000 | ### (### is ≥75%)
2 | O=C(O)C1CCN(c2cc(Cl)ccc2CN2CCCC23CCN(C(=O)OC(C(F)(F)F)C(F)(F)F)CC3)CC1 [Example 120, 1-(5-Chloro-2-((8-(((1,1,1,3,3,3-hexafluoropropan-2-yl)oxy)carbonyl)-1,8-diazaspiro[4.5]decan-1-yl)methyl)phenyl)piperidine-4-carboxylic acid] | < 25 | > 1000 | # (# is <25%) | < 100 | # (# is <25%) | > 75 | < 100 | < 25 | > 1000 | ### (### is ≥75%)
3 | O=C(O)C1CCN(c2cc(C(F)(F)F)ccc2CN2CCCC23CCN(C(=O)OC(C(F)(F)F)C(F)(F)F)CC3)CC1 [Example 121, 1-(2-((8-(((1,1,1,3,3,3-Hexafluoropropan-2-yl)oxy)carbonyl)-1,8-diazaspiro[4.5]decan-1-yl)methyl)-5-(trifluoromethyl)phenyl)piperidine-4-carboxylic acid] | < 25 | > 1000 | # (# is <25%) | < 100 | # (# is <25%) | > 75 | < 100 | < 25 | > 1000 | ### (### is ≥75%)
4 | O=C(O)C1CCN(c2cc(Cl)cc(CN3CCCC34CCN(C(=O)OC(C(F)(F)F)C(F)(F)F)CC4)c2)CC1 [Example 122, 1-(3-Chloro-5-((8-(((1,1,1,3,3,3-hexafluoropropan-2-yl)oxy)carbonyl)-1,8-diazaspiro[4.5]decan-1-yl)methyl)phenyl)piperidine-4-carboxylic acid] | < 25 | > 1000 | ## (## is equal to or greater than 25% but less than 75%) | < 100 | ## (## is equal to or greater than 25% but less than 75%) | > 75 | < 100 | < 25 | > 1000 | ### (### is ≥75%)
5 | O=C(O)C1CCN(c2cc(CN3CCCC34CCN(C(=O)OC(C(F)(F)F)C(F)(F)F)CC4)cc(C(F)(F)F)c2)CC1 [Example 123, 1-(3-((8-(((1,1,1,3,3,3-Hexafluoropropan-2-yl)oxy)carbonyl)-1,8-diazaspiro[4.5]decan-1-yl)methyl)-5-(trifluoromethyl)phenyl)piperidine-4-carboxylic acid] | < 25 | > 1000 | # (# is <25%) | < 100 | ## (## is equal to or greater than 25% but less than 75%) | > 75 | < 100 | < 25 | > 1000 | ### (### is ≥75%)
6 | O=C(OC(C(F)(F)F)C(F)(F)F)N1CCC2(CCCN2Cc2ccc(C(F)(F)F)c(N3CCOCC3)c2)CC1 [Example 133, 1,1,1,3,3,3-Hexafluoropropan-2-yl 1-(3-morpholino-4-(trifluoromethyl)benzyl)-1,8-diazaspiro[4.5]decane-8-carboxylate] | < 25 | > 1000 | # (# is <25%) | < 100 | # (# is <25%) | > 75 | < 100 | < 25 | > 1000 | ### (### is ≥75%)
7 | O=C(OC(C(F)(F)F)C(F)(F)F)N1CCC2(CCCN2Cc2ccc(C(F)(F)F)c(N3CCCC3)c2)CC1 [Example 134, 1,1,1,3,3,3-Hexafluoropropan-2-yl 1-(3-(pyrrolidin-1-yl)-4-(trifluoromethyl)benzyl)-1,8-diazaspiro[4.5]decane-8-carboxylate] | < 25 | > 1000 | # (# is <25%) | < 100 | # (# is <25%) | > 75 | < 100 | < 25 | > 1000 | ### (### is ≥75%)
8 | O=C(O)c1cc(CN2CCCC23CCN(C(=O)OC(C(F)(F)F)C(F)(F)F)CC3)ccc1C(F)(F)F [Example 179, 5-((8-((1,1,1,3,3,3-Hexafluoropropan-2-yloxy)carbonyl)-1,8-diazaspiro[4.5]decan-1-yl)methyl)-2-(trifluoromethyl)benzoic acid] | < 25 | > 1000 | ## (## is equal to or greater than 25% but less than 75%) | < 100 | # (# is <25%) | > 75 | 100 to 1000 | < 25 | > 1000 | ### (### is ≥75%)
9 | CS(=O)(=O)C1CCN(c2cc(C(F)(F)F)ccc2CN2CCCC23CCN(C(=O)OC(C(F)(F)F)C(F)(F)F)CC3)C1 (stereo not shown) [Example 193, 1,1,1,3,3,3-Hexafluoropropan-2-yl 1-(2-(3-(methylsulfonyl)pyrrolidin-1-yl)-4-(trifluoromethyl)benzyl)-1,8-diazaspiro[4.5]decane-8-carboxylate] | < 25 | – | # (# is <25%) | < 100 | # (# is <25%) | > 75 | – | < 25 | – | ## (## is equal to or greater than 25% but less than 75%)
10 | O=C(O)C1CCN(Cc2cc(Cl)cc(CN3CCCC34CCN(C(=O)OC(C(F)(F)F)C(F)(F)F)CC4)c2)CC1 [Example 194, 1-(3-Chloro-5-((8-(((1,1,1,3,3,3-hexafluoropropan-2-yl)oxy)carbonyl)-1,8-diazaspiro[4.5]decan-1-yl)methyl)benzyl)piperidine-4-carboxylic acid] | < 25 | – | # (# is <25%) | < 100 | # (# is <25%) | > 75 | – | < 25 | – | ## (## is equal to or greater than 25% but less than 75%)
